Structures are written as SMILES. Values after ≈ are worked out from the molar mass of the structure shown.

Experimental findings from patent US20260049092A1, “ANTIBACTERIAL COMPOUNDS” (Blacksmith Medicines, Inc., priority 2022, published 2026) are described below.

What all share (experiment): Bacterial susceptibility testing (MIC, broth microdilution)
Holding throughout (type): cell-based

The test system of one assay is E. coli ATCC25922. The settings on record: Escherichia coli, ATCC25922, broth microdilution, cation adjusted Mueller-Hinton Broth, 35° C., 18-24 h; read-out: E. coli ATCC25922 MIC. The procedure, abridged:
(§1)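 CLSI broth microdilution was run in cation-adjusted Mueller-Hinton broth with an inoculum of 3×10^5–7×10^5 CFU/mL and 2-fold compound dilutions. Plates were incubated in ambient air at 35° C for 18-24 h. MIC was the lowest concentration preventing visible growth (OD600 nm<0.05).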
(In general: Dilution methods test growth across graded concentrations, often in twofold steps.)

For another assay, the system named is K. pneumoniae ATCC13883. Conditions: Klebsiella pneumoniae, ATCC13883, broth microdilution, cation adjusted Mueller-Hinton Broth, 35° C., 18-24 h; read-out: K. pneumoniae ATCC13883 MIC. In a few lines:
as §1

The next assay deals with P. aeruginosa ATCC27853. The settings on record: Pseudomonas aeruginosa, ATCC27853, broth microdilution, cation adjusted Mueller-Hinton Broth, 35° C., 18-24 h; read-out: P. aeruginosa ATCC27853 MIC. In a few lines: as §1
The next assay concerns P. aeruginosa PAO1. The settings on record: Pseudomonas aeruginosa, PAO1; broth microdilution, cation adjusted Mueller-Hinton Broth, 35° C., 18-24 h; read-out: P. aeruginosa PAO1 MIC. The procedure, abridged:
as §1

Take `C[C@H](O)c1nccn1[C@@H](C#Cc1ccc(-c2ccc([C@@H](C)O)cc2)cc1)CO` [Compound 138, (S)-2-(2-((S)-1-hydroxyethyl)-1H-imidazol-1-yl)-4-(4′-((R)-1-hydroxyethyl)-[1,1′-biphenyl]-4-yl)but-3-yn-1-ol]: the MIC – broadly, the smallest concentration in the dilution series that meets the test's criterion for growth inhibition – with E. coli ATCC25922 is 1 µg/mL (≈ 2.66 µM); with K. pneumoniae ATCC13883 it was 2 µg/mL (≈ 5.31 µM); with P. aeruginosa ATCC27853, 16 µg/mL (≈ 42.5 µM); in the assay on P. aeruginosa PAO1, 4 µg/mL (≈ 10.6 µM).

As to `CC(=O)N1CC(c2ccc(-c3ccc(C#C[C@@H](CO)n4ccnc4[C@H](C)O)cc3)cc2)C1` [Compound 139, 1-(3-(4′-((S)-4-hydroxy-3-(2-((S)-1-hydroxyethyl)-1H-imidazol-1-yl)but-1-yn-1-yl)-[1,1′-biphenyl]-4-yl)azetidin-1-yl)ethan-1-one], the MIC is 0.5 µg/mL (≈ 1.16 µM) in the assay with E. coli ATCC25922, 1 µg/mL (≈ 2.33 µM) in the assay with K. pneumoniae ATCC13883, 4 µg/mL (≈ 9.31 µM) in the assay on P. aeruginosa ATCC27853 and 1 µg/mL (≈ 2.33 µM) in the assay on P. aeruginosa PAO1.

For `C[C@H](O)c1nccn1[C@@H](C#Cc1ccc(-c2ccc(C3CN(CCC#N)C3)cc2)cc1)CO` [Compound 140, 3-(3-(4′-((S)-4-hydroxy-3-(2-((S)-1-hydroxyethyl)-1H-imidazol-1-yl)but-1-yn-1-yl)-[1,1′-biphenyl]-4-yl)azetidin-1-yl)propanenitrile], the MIC in the assay with E. coli ATCC25922 amounted to 0.25 µg/mL (≈ 0.567 µM); with K. pneumoniae ATCC13883 it was 0.5 µg/mL (≈ 1.13 µM); in the assay on P. aeruginosa ATCC27853, 4 µg/mL (≈ 9.08 µM); in the assay on P. aeruginosa PAO1, 2 µg/mL (≈ 4.54 µM).
